Article PMC12024234, “Antioxidant, Anti-Inflammatory, and Oral Bioavailability of Novel Sulfonamide Derivatives of Gallic Acid” (Antioxidants, 2025)
“Also recorded” adds a separate entry of the source.

Assays:
[1] = DPPH radical scavenging assay; settings: for DPPH radical scavenging activity (in words): across tested concentrations 1 to 1000 μM
Experimental: The antioxidant properties of the compounds under study were examined using the 2,2-Diphenyl-1-picrylhydrazyl (DPPH) assay, following a well-established protocol. A DPPH solution was prepared at a concentration of 0.1 mM in methanol. […] To ensure proper reaction, the mixtures were kept in the dark and incubated at room temperature for 30 min. After incubation, the absorbance of each sample was measured at 517 nm using a UV-VIS spectrophotometer. Gallic acid was used as the reference standard, and methanol served as the blank control.
The ability of the compounds to scavenge free radicals was determined by observing the reduction of DPPH at 517 nm, with lower absorbance values indicating higher antioxidant activity. The half-maximal inhibitory concentration (IC50), defined as the concentration of the compound needed to neutralize 50% of the DPPH radicals, was calculated from the dose–response curve. All experiments were performed in triplicate, and the results are reported as the mean of three independent trials. This method is widely recognized for its reliability and reproducibility in evaluating the antioxidant potential of chemical compounds.

[2] = system: HIEC-6 cells; test: Cell viability CCK-8 assay in HIEC-6; type: cell-based, Human; settings: 24 h incubation
Experimental: Human intestinal epithelial cells (HIEC-6), originally obtained from the American Type Culture Collection (ATCC), were cultured in Opti-MEM™ I Reduced Serum Medium (Cat. No. 31985) supplemented with 20 mM HEPES, 10 mM L-glutamine, 10 ng/mL epidermal growth factor, and 4% fetal bovine serum (FBS) (New York, NY, USA). Cells were maintained in a humidified 5% CO2 incubator at 37 °C. Cell viability was assessed using the CCK-8 assay, a colorimetric method based on the reduction of water-soluble tetrazolium salts (WST-8) to a water-soluble formazan dye, with the resulting color intensity proportional to the number of viable cells. Briefly, cells were harvested at approximately 80% confluence, detached using trypsin-EDTA, and centrifuged at 1000 rpm for 5 min. The cell pellet was resuspended in fresh medium, and the density was adjusted to 1 × 10^6 cells/mL. A volume of 100 µL (1 × 10^5 cells/well) was seeded into a 96-well plate, with one well containing the medium only as background control. […] Subsequently, 10 µL of CCK-8 reagent was added to each well, and the plate was incubated for 4 h. Absorbance was measured at 450 nm using a microplate reader, results are expressed as the mean ± standard deviation (SD).

[3] = biological target: T1, COX-2 (Homo sapiens, UniProt P35354); test: Cyclooxygenase (COX-2) activity assay in HIEC-6 cell lysate; type: biochemical
T1 construct: endogenous in cells; host or cells: HIEC-6 cell lysate
T1 sequence (P35354 18-604): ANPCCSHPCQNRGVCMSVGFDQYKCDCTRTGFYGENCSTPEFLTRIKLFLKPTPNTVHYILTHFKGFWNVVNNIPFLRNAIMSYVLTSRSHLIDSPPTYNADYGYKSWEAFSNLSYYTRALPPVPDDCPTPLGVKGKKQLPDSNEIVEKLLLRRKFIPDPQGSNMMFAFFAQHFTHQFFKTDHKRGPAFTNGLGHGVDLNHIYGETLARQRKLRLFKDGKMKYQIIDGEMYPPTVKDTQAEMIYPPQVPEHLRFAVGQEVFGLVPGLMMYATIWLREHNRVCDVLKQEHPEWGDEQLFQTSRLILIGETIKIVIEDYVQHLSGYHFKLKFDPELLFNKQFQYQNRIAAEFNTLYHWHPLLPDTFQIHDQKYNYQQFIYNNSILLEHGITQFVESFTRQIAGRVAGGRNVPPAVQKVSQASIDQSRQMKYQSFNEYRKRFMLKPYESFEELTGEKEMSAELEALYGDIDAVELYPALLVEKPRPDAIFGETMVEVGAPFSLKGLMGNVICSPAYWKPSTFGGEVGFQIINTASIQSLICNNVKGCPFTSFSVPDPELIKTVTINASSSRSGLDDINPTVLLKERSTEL
Experimental: Cyclooxygenase (COX-2) activity assay was performed in HIEC-6 cells according to the manufacturer’s instructions (ab204699). Resorufin standards (0–20 pmol/well) were used to generate a calibration curve for quantifying sample concentrations. HIEC-6 cells were centrifuged at 500× g for 3 min and washed with PBS. The cell pellet was lysed in an ice-cold lysis buffer containing 10% Triton X-100 and a protease inhibitor cocktail in PBS for 5 min. The lysate was then centrifuged at 12,000× g for 3 min at 4 °C, and the supernatant was collected and kept on ice. Protein concentration in the supernatant was determined using a Bradford assay, with a bovine serum albumin standard curve (0–2000 µg/mL). […] This mixture was added to a 96-well plate, and the reaction was initiated by adding arachidonic acid (COX-2 substrate) dissolved in NaOH solution. The enzymatic reaction produced fluorescent resorufin dye, which was measured at excitation/emission wavelengths of λEx/Em = 535/587 nm.

Compound | EC50 [1] [µM] | DPPH radical scavenging activity ([1]; at 1000 µM) | ROS scavenging activity ([1]; at 1000 µM (abstract)) [%] | IC50 [2] [µM] | IC50 ([2]; Homo sapiens, HIEC-6, 24 h) [µM] | COX-2 inhibition compared to ibuprofen ([3]; 1 µM) | COX-2 inhibition compared to ibuprofen ([3]; 50 µM) | DPPH radical scavenging activity (in words) [1] | DPPH radical scavenging activity (in words) ([1]; listed as TMBS)
NS(=O)(=O)c1cc(O)c(O)c(O)c1 [3,4,5-THBS, 3,4,5-trihydroxybenzenesulfonamide] | ~27 | exceeding 90% | 93 | 35.5 ± 1.52 | 35 | inhibition levels similar to ibuprofen | inhibition levels similar to ibuprofen |  | 
COc1cc(S(N)(=O)=O)cc(OC)c1OC [3,4,5-TMBS, 3,4,5-trimethoxybenzenesulfonamide] |  |  |  | 33.4 ± 0.7 | 33 | no significant difference in COX-2 inhibition relative to ibuprofen | high COX-2 inhibition; also recorded: highly significant increase in inhibition | negligible effects | minimal scavenging activity
